# Legend:
# [1] = Tmax in Sprague-Dawley rat at 30 mg/kg,po measured upto 24 hrs by UPLC-MS/MS analysis; type: ADME, organism-based; details: in vivo
# [2] = Ratio of Cmax/Cmin in Sprague-Dawley rat at 1 mg/kg,iv measured after 24 hrs by UPLC-MS/MS analysis; type: ADME, organism-based; details: in vivo
# [3] = Cmin in Sprague-Dawley rat at 1 mg/kg,iv measured after 24 hrs by UPLC-MS/MS analysis; type: ADME, organism-based; details: in vivo, read-out: Cmin
# [4] = Volume of distribution at steady state in Sprague-Dawley rat at 1 mg/kg,iv measured upto 24 hrs by UPLC-MS/MS analysis; type: ADME, organism-based; details: in vivo, read-out: Vdss
# [5] = Tmax in Sprague-Dawley rat at 3 mg/kg,po measured upto 24 hrs by UPLC-MS/MS analysis; type: ADME, organism-based; details: in vivo
# [6] = AUClast in Sprague-Dawley rat at 1 mg/kg,iv measured upto 24 hrs by UPLC-MS/MS analysis; type: ADME, organism-based; set-up: time < 24 hrs, dose 1 mg/kg, route iv; details: in vivo
# [7] = Half life in Sprague-Dawley rat at 1 mg/kg,iv measured upto 24 hrs by UPLC-MS/MS analysis; type: ADME, organism-based; details: in vivo
# [8] = Cmax in Sprague-Dawley rat at 30 mg/kg,po measured upto 24 hrs by UPLC-MS/MS analysis; type: ADME, organism-based; set-up: time < 24 hrs, dose 30 mg/kg, route po; details: in vivo
# [9] = target: Voltage-gated inwardly rectifying potassium channel KCNH2 (Homo sapiens, UniProt Q12809); assay: Inhibition of human ERG by patch-clamp assay; type: toxicity
# Chain of Voltage-gated inwardly rectifying potassium channel KCNH2 (Q12809 whole entry): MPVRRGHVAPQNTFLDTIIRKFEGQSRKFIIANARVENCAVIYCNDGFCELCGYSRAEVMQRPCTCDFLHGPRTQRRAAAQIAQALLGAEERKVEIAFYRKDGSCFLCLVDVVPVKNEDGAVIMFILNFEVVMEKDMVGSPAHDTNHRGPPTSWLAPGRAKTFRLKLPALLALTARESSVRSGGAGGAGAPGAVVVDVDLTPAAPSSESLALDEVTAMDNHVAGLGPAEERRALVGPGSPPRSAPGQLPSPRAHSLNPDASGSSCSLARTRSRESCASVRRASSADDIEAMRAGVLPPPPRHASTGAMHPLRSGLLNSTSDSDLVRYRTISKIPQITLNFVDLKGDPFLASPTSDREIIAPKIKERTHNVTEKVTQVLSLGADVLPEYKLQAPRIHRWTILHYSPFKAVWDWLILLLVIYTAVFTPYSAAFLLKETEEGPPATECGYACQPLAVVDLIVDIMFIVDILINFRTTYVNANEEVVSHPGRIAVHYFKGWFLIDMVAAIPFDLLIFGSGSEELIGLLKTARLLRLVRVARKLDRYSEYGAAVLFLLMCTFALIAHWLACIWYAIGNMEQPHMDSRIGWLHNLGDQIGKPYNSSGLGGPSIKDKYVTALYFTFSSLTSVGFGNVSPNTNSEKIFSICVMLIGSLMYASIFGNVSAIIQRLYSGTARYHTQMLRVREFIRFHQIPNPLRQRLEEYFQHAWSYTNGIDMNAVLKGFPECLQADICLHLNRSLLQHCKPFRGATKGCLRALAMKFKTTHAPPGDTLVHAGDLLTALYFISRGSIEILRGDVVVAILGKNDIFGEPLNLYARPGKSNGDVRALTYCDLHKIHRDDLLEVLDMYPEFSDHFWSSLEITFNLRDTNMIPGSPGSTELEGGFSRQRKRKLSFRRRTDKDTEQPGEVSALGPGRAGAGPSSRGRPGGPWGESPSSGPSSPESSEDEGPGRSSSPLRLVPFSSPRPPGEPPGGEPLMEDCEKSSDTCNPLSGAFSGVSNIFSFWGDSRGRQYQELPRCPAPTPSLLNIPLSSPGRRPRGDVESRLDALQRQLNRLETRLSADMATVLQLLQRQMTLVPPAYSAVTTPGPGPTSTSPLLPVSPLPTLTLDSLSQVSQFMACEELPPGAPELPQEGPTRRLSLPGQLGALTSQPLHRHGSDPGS
# [10] = Cmax in Sprague-Dawley rat at 3 mg/kg,po measured upto 24 hrs by UPLC-MS/MS analysis; type: ADME, organism-based; set-up: dose 3 mg/kg, time < 24 hrs, route po; details: in vivo
# [11] = AUClast in Sprague-Dawley rat at 3 mg/kg,po measured upto 24 hrs by UPLC-MS/MS analysis; type: ADME, organism-based; set-up: time < 24 hrs, dose 3 mg/kg, route po; details: in vivo
# [12] = AUClast in Sprague-Dawley rat at 30 mg/kg,po measured upto 24 hrs by UPLC-MS/MS analysis; type: ADME, organism-based; set-up: time < 24 hrs, dose 30 mg/kg, route po; details: in vivo
# [13] = Ratio of Cmax/Cmin in Sprague-Dawley rat at 3 mg/kg,po measured after 24 hrs by UPLC-MS/MS analysis; type: ADME, organism-based; details: in vivo
# [14] = Cmax in Sprague-Dawley rat at 1 mg/kg,iv measured upto 24 hrs by UPLC-MS/MS analysis; type: ADME, organism-based; set-up: dose 1 mg/kg, time < 24 hrs, route iv; details: in vivo
# [15] = Clearance in Sprague-Dawley rat at 1 mg/kg,iv measured upto 24 hrs by UPLC-MS/MS analysis; type: ADME, organism-based; details: in vivo
# [16] = Aqueous solubility of compound at pH 6.5 by UPLC analysis; type: physicochemical; details: aqueous medium, read-out: solubility
# [17] = Aqueous solubility of compound at pH 4 by UPLC analysis; type: physicochemical
# [18] = Ratio of AUC of Atazanavir in Sprague-Dawley rat at 1 ml/kg,iv measured upto 24 hrs by UPLC-MS/MS analysis; type: ADME; details: in vivo
# [19] = Metabolic stability in rat liver microsomes assessed as half life in presence of NADPH; type: ADME, Microsome
# [20] = Aqueous solubility of compound at pH 1 by UPLC analysis; type: physicochemical; details: buffer
# [21] = Volume of distribution at steady state in Sprague-Dawley rat at 1 ml/kg,iv measured upto 24 hrs by UPLC-MS/MS analysis; type: ADME; details: in vivo, read-out: Vdss
# [22] = Tmax in Sprague-Dawley rat at 3 ml/kg,po measured upto 24 hrs by UPLC-MS/MS analysis; type: ADME; details: Sprague-Dawley, in vivo, read-out: Tmax
# [23] = Cmax in Sprague-Dawley rat at 30 ml/kg,po measured upto 24 hrs by UPLC-MS/MS analysis; type: ADME; set-up: time < 24 hrs, dose 30 ml/kg, route po; details: in vivo
# [24] = Fold ratio of total AUC of Atazanavir in Sprague-Dawley rat at 30 ml/kg,po measured upto 24 hrs by UPLC-MS/MS analysis; type: ADME; details: in vivo
# [25] = Ratio of AUC of Atazanavir in Sprague-Dawley rat at 30 ml/kg,po measured upto 24 hrs by UPLC-MS/MS analysis; type: ADME; details: in vivo
# [26] = Metabolic stability in dog intestine microsomes assessed as half life in presence of NADPH; type: ADME, Canis lupus familiaris, Microsome
# [27] = Metabolic stability in monkey intestine microsomes assessed as half life; type: ADME, Macaca mulatta, Microsome; details: rhesus monkey
# [28] = Fold ratio of total AUC of Atazanavir in Sprague-Dawley rat at 3 ml/kg,po measured upto 24 hrs by UPLC-MS/MS analysis; type: ADME; details: in vivo
# [29] = Metabolic stability in dog intestine microsomes assessed as half life; type: ADME, Canis lupus familiaris, Microsome
# [30] = Metabolic stability in rat intestine microsomes assessed as half life; type: ADME, Microsome
# [31] = Half life in rat hepatocyte measured upto 120 mins by UPLC-MS/MS analysis; type: ADME, cell-based; details: hepatocytes
# [32] = Cmax in Sprague-Dawley rat at 1 ml/kg,iv measured upto 24 hrs by UPLC-MS/MS analysis; type: ADME; set-up: dose 1 ml/kg, time < 24 hrs, route iv; details: in vivo
# [33] = Ratio of Cmax/Cmin of Atazanavir in Sprague-Dawley rat at 1 ml/kg,iv measured after 24 hrs by UPLC-MS/MS analysis; type: ADME; details: in vivo
# [34] = Aqueous stability of the compound in phosphate buffer at pH 6.5 assessed as compound half life measured after 24 hrs by UPLC analysis; type: physicochemical; details: buffer, pH 6.5, 24 h, 24 h
# [35] = Half life in rat hepatocyte measured upto 120 mins in presence of PMSF by UPLC-MS/MS analysis; type: ADME, cell-based; details: hepatocytes, with PMSF
# [36] = AUClast in Sprague-Dawley rat at 3 ml/kg,po measured upto 24 hrs by UPLC-MS/MS analysis; type: ADME; set-up: time < 24 hrs, dose 3 ml/kg, route po; details: Sprague-Dawley, in vivo, 3 ml/kg
# [37] = Fold ratio of total AUC of Atazanavir in Sprague-Dawley rat at 1 ml/kg,iv measured upto 24 hrs by UPLC-MS/MS analysis; type: ADME; details: in vivo
# [38] = Relative Cmax ratio of Atazanavir in Sprague-Dawley rat at 1 ml/kg,iv measured upto 24 hrs by UPLC-MS/MS analysis; type: ADME; details: in vivo
# [39] = Metabolic stability in monkey liver microsomes assessed as half life in presence of NADPH; type: ADME, Macaca mulatta, Microsome; details: rhesus monkey
# [40] = Metabolic stability in monkey liver microsomes assessed as half life; type: ADME, Macaca mulatta, Microsome; details: rhesus monkey
# [41] = Metabolic stability in dog liver microsomes assessed as half life; type: ADME, Canis lupus familiaris, Microsome
# [42] = Relative Cmax ratio of Atazanavir in Sprague-Dawley rat at 3 ml/kg,po measured upto 24 hrs by UPLC-MS/MS analysis; type: ADME; details: in vivo
# [43] = Cmin in Sprague-Dawley rat at 1 ml/kg,iv measured after 24 hrs by UPLC-MS/MS analysis; type: ADME; details: in vivo, read-out: Cmin
# [44] = Tmax in Sprague-Dawley rat at 30 ml/kg,po measured upto 24 hrs by UPLC-MS/MS analysis; type: ADME; details: in vivo
# [45] = Half life in rat hepatocyte measured upto 120 mins in presence of PMSF and ABT by UPLC-MS/MS analysis; type: ADME, cell-based; details: hepatocytes, with PMSF and ABT
# [46] = AUClast in Sprague-Dawley rat at 30 ml/kg,po measured upto 24 hrs by UPLC-MS/MS analysis; type: ADME; set-up: time < 24 hrs, dose 30 ml/kg, route po; details: in vivo
# [47] = Relative AUC ratio of Atazanavir in Sprague-Dawley rat at 30 ml/kg,po measured upto 24 hrs by UPLC-MS/MS analysis; type: ADME; details: in vivo
# [48] = Metabolic stability in human intestine microsomes assessed as half life; type: ADME, Microsome
# [49] = Metabolic stability in monkey intestine microsomes assessed as half life in presence of NADPH; type: ADME, Macaca mulatta, Microsome; details: rhesus monkey
# [50] = Cmax in Sprague-Dawley rat at 3 ml/kg,po measured upto 24 hrs by UPLC-MS/MS analysis; type: ADME; set-up: dose 3 ml/kg, time < 24 hrs, route po; details: Sprague-Dawley, in vivo, 3 ml/kg
# [51] = Metabolic stability in human intestine microsomes assessed as half life in presence of NADPH; type: ADME, Microsome
# [52] = Metabolic stability in human liver microsomes assessed as half life in presence of NADPH; type: ADME, Microsome
# [53] = Ratio of Cmax/Cmin of Atazanavir in Sprague-Dawley rat at 3 ml/kg,po measured after 24 hrs by UPLC-MS/MS analysis; type: ADME; details: in vivo
# [54] = Metabolic stability in human liver microsomes assessed as half life; type: ADME, Microsome
# [55] = Ratio of AUC of Atazanavir in Sprague-Dawley rat at 3 ml/kg,po measured upto 24 hrs by UPLC-MS/MS analysis; type: ADME; details: in vivo
# [56] = Half life in rat hepatocyte measured upto 120 mins in presence of ABT by UPLC-MS/MS analysis; type: ADME, cell-based; details: hepatocytes, with ABT
# [57] = Relative Cmax ratio of Atazanavir in Sprague-Dawley rat at 30 ml/kg,po measured upto 24 hrs by UPLC-MS/MS analysis; type: ADME; details: in vivo
# [58] = Metabolic stability in rat intestine microsomes assessed as half life in presence of NADPH; type: ADME, Microsome
# [59] = Relative AUC ratio of Atazanavir in Sprague-Dawley rat at 3 ml/kg,po measured upto 24 hrs by UPLC-MS/MS analysis; type: ADME; details: in vivo
# [60] = Metabolic stability in rat liver microsomes assessed as half life; type: ADME, Microsome
# [61] = Ratio of Cmax/Cmin of Atazanavir in Sprague-Dawley rat at 30 ml/kg,po measured after 24 hrs by UPLC-MS/MS analysis; type: ADME; details: in vivo
# [62] = Half life in Sprague-Dawley rat at 1 ml/kg,iv measured upto 24 hrs by UPLC-MS/MS analysis; type: ADME; details: in vivo
# [63] = AUClast in Sprague-Dawley rat at 1 ml/kg,iv measured upto 24 hrs by UPLC-MS/MS analysis; type: ADME; set-up: dose 1 ml/kg, time < 24 hrs, route iv; details: in vivo
# [64] = Metabolic stability in dog liver microsomes assessed as half life in presence of NADPH; type: ADME, Canis lupus familiaris, Microsome
# [65] = Clearance in Sprague-Dawley rat at 1 ml/kg,iv measured upto 24 hrs by UPLC-MS/MS analysis; type: ADME; details: in vivo
# [66] = Relative AUC ratio of Atazanavir in Sprague-Dawley rat at 1 ml/kg,iv measured upto 24 hrs by UPLC-MS/MS analysis; type: ADME; details: in vivo
structure (smiles),measurement,setting,value
COC(=O)N[C@H](C(=O)N[C@@H](Cc1ccccc1)[C@@H](O)CN(Cc1ccc(-c2ccccn2)cc1)NC(=O)[C@@H](NC(=O)OC)C(C)(C)C)C(C)(C)C [ATAZANAVIR],Tmax,[1],3 h
same,Ratio,[2],8978.6
same,concentration at 24 h,[3],0.28 nM
same,Vd,[4],1.5 L/kg
same,Tmax,[5],0.5 h
same,AUC(0-t) at 24 h,[6],0.636 µM·h
same,half-life,[7],7 h
same,Cmax,[8],5110 nM
same,IC50,[9],≥ 30 µM
same,Cmax,[10],266 nM
same,AUC(0-t) at 24 h,[11],0.384 µM·h
same,AUC(0-t) at 24 h,[12],20.9 µM·h
same,Ratio,[13],1064
same,Cmax,[14],2510 nM
same,clearance,[15],38.7 mL/min/kg
same,solubility,[16],< 1 µg/mL
same,solubility,"[17]; aqueous medium, read-out: solubility",< 1 µg/mL
COC(=O)N[C@H](C(=O)N[C@@H](Cc1ccccc1)[C@H](CN(Cc1ccc(-c2ccccn2)cc1)NC(=O)[C@@H](NC(=O)OC)C(C)(C)C)OC(=O)OC(OC(=O)[C@@H](N)C(C)C)C(C)C)C(C)(C)C (stereo in doubt; 3s),Ratio,[18],0.04
same,half-life,[19],0.833 h
same,solubility,[20],> 2100 µg/mL
same,Vd,[21],35 L/kg
same,Tmax,[22],0.6 h
same,Cmax,[23],189 nM
same,Ratio,[24],1.35
same,Ratio,[25],0.02
same,half-life,[26],0.883 h
same,half-life,[27],> 2 h
same,Ratio,[28],6.8
same,half-life,[29],> 2 h
same,half-life,[30],> 2 h
same,half-life,[31],0.35 h
same,Cmax,[32],151 nM
same,Ratio,[33],1040.4
same,t1/2,[34],4.9 h
same,half-life,[35],1.43 h
same,AUC(0-t) at 24 h,[36],0.044 µM·h
same,Ratio,[37],7.3
same,Ratio,[38],2.07
same,half-life,[39],9 min
same,half-life,[40],2.45 h
same,half-life,[41],4.82 h
same,Ratio,[42],3.8
same,concentration at 24 h,[43],2 nM
same,Tmax,[44],0.8 h
same,half-life,[45],1.43 h
same,AUC(0-t) at 24 h,[46],0.601 µM·h
same,Ratio,[47],1.32
same,half-life,[48],1.83 h
same,half-life,[49],0.4 h
same,Cmax,[50],19 nM
same,half-life,[51],0.967 h
same,half-life,[52],1.18 h
same,Ratio,[53],204.8
same,half-life,[54],2.82 h
same,Ratio,[55],0.02
same,half-life,[56],0.433 h
same,Ratio,[57],2.1
same,half-life,[58],1.78 h
same,Ratio,[59],6.7
same,solubility,[17]; buffer,> 2300 µg/mL
same,half-life,[60],3.73 h
same,Ratio,[61],329.4
same,half-life,[62],6 h
same,AUC(0-t) at 24 h,[63],0.17 µM·h
same,half-life,[64],9 min
same,clearance,[65],102 mL/min/kg
same,Ratio,[66],7

# — ChEMBL document CHEMBL5137093, “Improving Drug Delivery While Tailoring Prodrug Activation to Modulate Cmax and Cmin by Optimization of (Carbonyl)oxyalkyl Linker-Based Prodrugs of Atazanavir” (J Med Chem, 2022)
